Test results as given in patent US11766470B2, “Manufacture, formulation and dosing of apraglutide” (VectivBio AG, priority 2020, dated 2023).
Square brackets hold non-standard residues; d marks the D form. Peptide text beside a SMILES is read from it. ξ: configuration not given here. Ile(3ξ) = CCC(C)[C@H](N)C(=O)O; Thr(3ξ) = CC(O)[C@H](N)C(=O)O; Nle = CCCC[C@H](N)C(=O)O

System: patients with SBS-IF
Assay: Phase 2 placebo-controlled crossover trial in SBS-IF patients (Example 5): urine output, urine sodium, PS volume, oral fluid intake, hydration parameters, plasma L-citrulline, body composition
Assay type: in vivo, human
Conditions: for Fluid composite effect (increase urine production + reduction PS volume + reduction oral fluid intake): post-hoc
Description: The following non-limiting example describes results from a Phase 2 clinical trial in which subjects with SBS-IF were treated with the apraglutide formulations of the present disclosure. This Phase 2 trial investigated the safety and efficacy of 5 and 10 mg apraglutide in patients with SBS-IF.
Eight adult patients with SBS-IF were treated with apraglutide compositions of the present disclosure according to Table 6. Briefly, patients with SBS-IF were administered 5 mg apraglutide of the present disclosure or placebo once a week for four weeks. The patients were then administered 10 mg apraglutide of the present disclosure once a week for four weeks. Additionally, there was a washout period of 6-10 weeks between treatments.
The trial described in Example 5 was a double-blind, crossover, randomized, placebo-controlled, phase 2 trial followed by an additional treatment period in an open-label regimen. Eight adult patients (aged ≥18 to ≤80 years) with SBS-IF were enrolled in the trial. Patient eligibility was assessed during a screening visit. The main inclusion criteria were: Patients with SBS secondary to surgical resection of the small bowel with a jejuno- or ileostomy, at least 6 months since last bowel resection, a fecal output of at least 1500 g/day as recorded within the last 18 months, and PS-infusions≥3 times per week for ≥12 months according to the patient's medical record. Patients were excluded, if they had clinical signs of activity in inflammatory bowel disease, a history of cancer within ≤5 years or an inadequate hepatic, kidney, or heart function. Patients were also excluded, if they had received native GLP-2 or a GLP-2 analogue within the last 3 months.
The procedures during each treatment period were consistent.
Efficacy assessments were performed for each treatment period of 29 days. Patients received a paper diary for recording PS volume administration, urine collections and oral fluid intakes at specific time points. Patients performed home 48-hour urine collections at baseline (day −2 to 1), immediately after first treatment injection (day 1 to 3), and at the end of the treatment period (day 27-29, […] after the fourth administration of the trial drug). Urine was collected by the patient in a urine container with volume markings and 48-hour urine volumes were reported in the diary. After completing the 48-hour collection, patients transferred approximately 100 mL of urine from the container to a sample which was delivered at the next patient visit. The amount of sodium excreted per 48 hours was then calculated as the concentration of sodium in the sample multiplied by the total volume of urine collected. During each urine collection, weekly PS volume and content and daily oral fluid intake were kept constant. Since they were kept constant, increases in urine volume were a sign of increased fluid absorption. […] Patients were to adhere to their drinking menu during each urine collection and the concomitant 48-hour oral fluid intake was reported in the diary during each urine collection.
On day 20-22, patients were informed to record their spontaneous oral fluid intake during 48 hours. This measurement was included to investigate whether increased intestinal absorption was associated with a decrease in their spontaneous oral fluid intake.
Between day 4 and 24, PS volume reductions were allowed if deemed clinically necessary by the investigator. […] PS volume reductions were assessed during day 20-22. Patients returned to their baseline PS volume and content during the end of the treatment urine collection (day 27-29). Concomitant medications including proton-pump inhibitors, loperamide, and opiates were kept unchanged and stable throughout the trial. If necessary, adjustments could be made in the drinking menu and prescribed PS volume and content between treatment periods based on discussions between the patient and the investigator.
Body weight was measured using a levelled platform scale. […]

[1] = 5 mg vs placebo, Part A+B, end of treatment
[2] = 5 mg vs placebo, Part A, day 1-3 after first injection
[3] = 5 mg vs placebo, Part A, day 20-22
[4] = 5 mg vs placebo, Part A, day 27-29
[5] = 5 mg vs placebo, Part A, end of treatment
[6] = 10 mg vs placebo, Part A+B, day 1-3 after first injection
[7] = 10 mg vs placebo, Part A+B, day 20-22
[8] = 10 mg vs placebo, Part A+B, day 27-29
[9] = 10 mg vs placebo, Part A+B, end of treatment

CCCC[C@H](NC(=O)[C@H](CCC(=O)O)NC(=O)[C@H](CC(=O)O)NC(=O)[C@H](CO)NC(=O)[C@H](Cc1ccccc1)NC(=O)[C@H](CO)NC(=O)CNC(=O)[C@H](CC(=O)O)NC(=O)CNC(=O)[C@@H](N)Cc1c[nH]cn1)C(=O)N[C@H](Cc1ccccc1)C(=O)N[C@H](C(=O)N[C@H](C(=O)N[C@@H](CC(C)C)C(=O)N[C@@H](CC(=O)O)C(=O)N[C@@H](CC(C)C)C(=O)N[C@@H](CC(C)C)C(=O)N[C@@H](C)C(=O)N[C@@H](C)C(=O)N[C@@H](CCCNC(=N)N)C(=O)N[C@@H](CC(=O)O)C(=O)N[C@@H](Cc1ccccc1)C(=O)N[C@H](C(=O)N[C@@H](CC(N)=O)C(=O)N[C@@H](Cc1c[nH]c2ccccc12)C(=O)N[C@@H](CC(C)C)C(=O)N[C@H](C(=O)N[C@@H](CCC(N)=O)C(=O)N[C@H](C(=O)N[C@@H](CCCCN)C(=O)N[C@H](C(=O)N[C@H](C(=O)N[C@@H](CC(=O)O)C(N)=O)C(C)O)C(C)CC)C(C)O)C(C)CC)C(C)CC)C(C)CC)C(C)O (stereo partly drawn) [apraglutide, L-histidyl-glycyl-L-aspartyl-glycyl-L-seryl-L-phenylalanyl-L-seryl-L-aspartyl-L-glutamyl-L-norleucyl-D-phenylalanyl-L-threonyl-Lisoleucyl-L-leucyl-L-aspartyl-L-leucyl-L-leucyl-L-alanyl-L-alanyl-L-arginyl-L-aspartyl-L-phenylalanyl-L-isoleucyl-L-asparaginyl-Ltryptophanyl-L-leucyl-L-isoleucyl-L-glutaminyl-L-threonyl-L-lysyl-L-isoleucyl-L-threonyl-Laspartic acid amide] (H-HGDGSFSDE[Nle][dF][Thr(3ξ)][Ile(3ξ)]LDLLAARDF[Ile(3ξ)]NWL[Ile(3ξ)]Q[Thr(3ξ)]K[Ile(3ξ)][Thr(3ξ)]D-NH2)
Relative body weight, adjusted mean change from baseline [1]: 3 (0 to 6); % | Relative bone mineral content, adjusted mean change from baseline [1]: 0 (−3 to 3); % | Relative fat body mass, adjusted mean change from baseline [1]: 10 (1 to 18); % | Relative lean body mass, adjusted mean change from baseline [1]: 2 (−5 to 9); % | Relative plasma L-citrulline, adjusted mean change from baseline [1]: 65 (15 to 115); % | Urea, adjusted mean change from baseline [1]: −0.9 (−2.4 to 0.6); mmol/L | Absolute urine output, adjusted mean change from baseline [2]: −48 (−696 to 601); mL/day | Relative urine output, adjusted mean change from baseline [2]: 5 (−38 to 48); % | Urine sodium excretion (%), adjusted mean change from baseline [2]: 64 (−306 to 433); % | Urine sodium excretion, adjusted mean change from baseline [2]: 3 (−146 to 152); mmol/day | PS volume, adjusted mean change from baseline [3]: −94 (−344 to 156); P = .356 mL/day | Relative PS volume, adjusted mean change from baseline [3]: −13 (−41 to 15); P = .276% | Relative oral fluid intake, adjusted mean change from baseline [3]: −9 (−18 to 1); P = .068% | Absolute urine output, adjusted mean change from baseline [4]: 714 mL/day | Relative urine output, adjusted mean change from baseline [4]: 49% | Urine sodium excretion (%), adjusted mean change from baseline [4]: 189 (−350 to 729); P = .270% | Urine sodium excretion, adjusted mean change from baseline [4]: 66 (−69 to 201); P = .171 mmol/day | Body weight, adjusted mean change from baseline [5]: 1.9 (−0.8 to 4.5); kg | Bone mineral content, adjusted mean change from baseline [5]: −4 (−132 to 123); g | Fat body mass, adjusted mean change from baseline [5]: 1.74 (−0.36 to 3.83); kg | Lean body mass, adjusted mean change from baseline [5]: 0.49 (−4.65 to 5.64); kg | Plasma L-citrulline, adjusted mean change from baseline [5]: 17.7 (−6.3 to 41.7); μmol/L | Relative body weight, adjusted mean change from baseline [5]: 3 (−1 to 7); % | Relative bone mineral content, adjusted mean change from baseline [5]: 0 (−6 to 6); % | Relative fat body mass, adjusted mean change from baseline [5]: 9 (−5 to 24); % | Relative lean body mass, adjusted mean change from baseline [5]: 2 (−11 to 15); % | Relative plasma L-citrulline, adjusted mean change from baseline [5]: 66 (−13 to 145); % | Fluid composite effect (increase urine production + reduction PS volume + reduction oral fluid intake) (5 mg vs placebo, Part A+B): 1,036 mL/day | Absolute urine output, adjusted mean change from baseline [6]: −64 (−500 to 372); mL/day | Relative urine output, adjusted mean change from baseline [6]: −6 (−37 to 24); % | Urine sodium excretion (%), adjusted mean change from baseline [6]: 22 ( −75 to 119); % | Urine sodium excretion, adjusted mean change from baseline [6]: 3 (−17 to 22); mmol/day | Relative PS volume, adjusted mean change from baseline [7]: −28 (−51 to −4); % | Relative oral fluid intake, adjusted mean change from baseline [7]: −15 (−25 to −5); % | Absolute urine output, adjusted mean change from baseline [8]: 795 (195 to 1,394); mL/day | Relative urine output, adjusted mean change from baseline [8]: 34 (−4 to 71); % | Urine sodium excretion (%), adjusted mean change from baseline [8]: 432 ( −87 to 951); % | Urine sodium excretion, adjusted mean change from baseline [8]: 88 (20 to 156); mmol/day | Albumin, adjusted mean change from baseline [9]: 1.0 (−0.9 to 2.9); g/L | Body weight, adjusted mean change from baseline [9]: 1.3 (−0.6 to 3.2); kg | Bone mineral content, adjusted mean change from baseline [9]: 8 (−64 to 81); g | CO2 total, adjusted mean change from baseline [9]: 1.3 (−1.1 to 3.7); mmol/L | Creatinine, adjusted mean change from baseline [9]: −5.1 (−22.1 to 11.9); umol/L | Fat body mass, adjusted mean change from baseline [9]: 0.33 (−1.20 to 1.85); kg | Hematocrit, adjusted mean change from baseline [9]: 0.2 (−0.7 to 1.0); vol/fr | Lean body mass, adjusted mean change from baseline [9]: 0.76 (−2.47 to 3.99); kg | Plasma L-citrulline, adjusted mean change from baseline [9]: 14.0 (−2.3 to 30.3); μmol/L | Protein, adjusted mean change from baseline [9]: −0.7 (−4.7 to 3.3); g/L | Relative body weight, adjusted mean change from baseline [9]: 2 (−1 to 5); % | Relative bone mineral content, adjusted mean change from baseline [9]: 0 (−3 to 3); % | Relative fat body mass, adjusted mean change from baseline [9]: 2 (−7 to 11); % | Relative lean body mass, adjusted mean change from baseline [9]: 2 (−6 to 9); % | Relative plasma L-citrulline, adjusted mean change from baseline [9]: 42 (−10 to 94); % | Urea, adjusted mean change from baseline [9]: −0.6 (−2.2 to 1.0); mmol/L | Fluid composite effect (increase urine production + reduction PS volume + reduction oral fluid intake) (10 mg vs placebo, Part A+B): 1,630 mL/day
